The results in this text go back to patent US4311837A, “Certain heterocyclic thiomethyl derivatives of 7-(dihalogenated phenylthioacetamido)cephalosporanic acids useful in the treatment of infections caused by _Streptococcus faecalis” (Eli Lilly and Company, priority 1980, dated 1982).

This experiment concerns Streptococcus faecalis. As to the kind of experiment: In vitro antibacterial activity against eleven strains of Streptococcus faecalis (agar dilution method; tube dilution per footnote). In kind it is cell-based. The settings on record: Enterococcus faecalis, geometric mean against eleven strains of Streptococcus faecalis. The text has this:
[…] faecalis is classified as a species of Group D β-hemolytic streptococci, also known as enterococci. Infections caused by Group D β-hemolytic streptococci, in particular […] faecalis, are generally known to be resistant to cephalosporin antibiotics. The infections caused by Group D streptococci commonly involve the endocardium (endocarditis), the urinary tract, the intestines, the biliary tract, postoperative wounds, and interabdominal abscesses. Endocarditis is clinically a very important disease and is frequently difficult to treat by antibiotic therapy. The disease is commonly treated by infusion of penicillin G in combination with streptomycin or vancomycin. […] The results are shown in Table 1 where the activity is measured by the MIC values, defined as the concentration of the compound capable of inhibiting the growth of the test organism. |In Vitro Antibacterial Activity Against Eleven |Strains of Streptococcus faecalis | *Geometric mean MIC as determined by the tube dilution method against | eleven strains of Streptococcus faecalis.
On the technique in general: Agar dilution tests growth on a series of plates holding different concentrations.
Consider `O=C(CSc1cc(Cl)ccc1Cl)NC1C(=O)N2C(C(=O)O)=C(CSc3cnsn3)CSC12` (stereo not drawn), for which the MIC (in general, the least concentration at which growth counts as inhibited) was 1.37 µg/mL.
For `Nc1nnc(SCC2=C(C(=O)O)N3C(=O)C(NC(=O)CSc4cc(Cl)ccc4Cl)C3SC2)s1` (stereo not drawn) the value was 4.26 µg/mL; for `Cn1nnnc1SCC1=C(C(=O)O)N2C(=O)C(NC(=O)CSc3ccc(Cl)c(Cl)c3)C2SC1` (stereo not drawn), 4.83 µg/mL; for `Cc1nnc(SCC2=C(C(=O)O)N3C(=O)C(NC(=O)CSc4cc(Cl)ccc4Cl)C3SC2)s1` (stereo not drawn), 1.29 µg/mL.
For `Cn1c(SCC2=C(C(=O)O)N3C(=O)C(NC(=O)CSc4cc(Cl)ccc4Cl)C3SC2)nnc(O)c1=O` (stereo not drawn) the value was 3.76 µg/mL; for `Cn1nnnc1SCC1=C(C(=O)O)N2C(=O)C(NC(=O)CSc3cc(Cl)ccc3Cl)C2SC1` (stereo not drawn), 3.11 µg/mL; for `O=C(CSc1cc(Cl)ccc1Cl)NC1C(=O)N2C(C(=O)O)=C(CSc3ncco3)CSC12` (stereo not drawn), 1.88 µg/mL.
The result for `Cc1nsc(SCC2=C(C(=O)O)N3C(=O)C(NC(=O)CSc4cc(Cl)ccc4Cl)C3SC2)n1` (stereo not drawn) reads 1.88 µg/mL; that for `Cc1nnc(SCC2=C(C(=O)O)N3C(=O)C(NC(=O)CSc4cc(Cl)ccc4Cl)C3SC2)o1` (stereo not drawn), 2.13 µg/mL; that for `O=C(CSc1cc(Cl)ccc1Cl)NC1C(=O)N2C(C(=O)O)=C(CO)CS[C@H]12` (stereo partly drawn) [OH, 7-[2-[(2,5-Dichlorophenyl)thio]acetamido]-3-hydroxymethyl-3-cephem-4-carboxylic acid], 3.11 µg/mL.
Turning to `Cc1nnc(SCC2=C(C(=O)O)N3C(=O)C(NC(=O)CSc4ccc(Cl)c(Cl)c4)C3SC2)s1` (stereo not drawn), the MIC is 1.76 µg/mL.
The result for `CC(=O)OCC1=C(C(=O)O)N2C(=O)C(NC(=O)CSc3cc(Cl)ccc3Cl)C2SC1` (stereo not drawn) reads 2 µg/mL.
